Assay results as given in US10869846B2, “N-acetylcysteine amide (NAC amide) in the treatment of diseases and conditions associated with oxidative stress” (SENTIENT LIFESCIENCES, INC., priority 2005, dated 2020).

Experiments:
[1] = Wong et al. 1986; cited from earlier work
PC12 cells [2] = assay: Morphological assessment of glutamate toxicity; format: cell-based; details: 10 mM glutamate, 750 μM NAC amide, 24 hours
Description: Cell culture and toxicity studies: Stock culture of PC12 cells, purchased from ATCC, were grown in 75 cm^2 tissue culture flasks in RPMI 1640, supplemented with 10% (v/v) heat-inactivated horse serum, and 5% (v/v) fetal bovine serum, to which 1% (v/v) penicillin and streptomycin were added. Cultures were maintained at 37° C. in a humidified atmosphere containing 5% CO2. The cells were passaged twice a week. Unless specified, all of the experiments were performed using Dulbecco's modified Eagle's medium (DMEM) as differentiation medium, supplemented with 0.5% (v/v) fetal bovine serum, 1% (v/v) penicillin and streptomycin. PC12 cells were plated at a density of 25×10^3 cells/well in a 24-well, collagen-coated plate for morphological assessment. The plate was divided into five groups in triplicate: 1) control: no glutamate, no NAC amide; 2) Nerve Growth Factor (NGF) control: NGF (100 ng/ml), no glutamate, no NAC amide; 3) NAC amide only: NGF (100 ng/ml), no glutamate, NAC amide (750 μM); 4) glutamate only: NGF (100 ng/ml), glutamate (10 mM), no NAC amide; and 5) Glu+NAC amide: NGF (100 ng/ml), glutamate (10 mM), NAC amide (750 μM). […]
Glutamate toxicity was evaluated by 1) morphological assessment of PC12 cells in the presence of glutamate; 2) measuring the amount of LDH released in the media 24 h after glutamate exposure; and 3) measuring cell viability using the MTS assay. […]

PC12 cells [3] = assay: LDH assay, glutamate cytotoxicity; format: cell-based; details: 10 mM glutamate + 750 μM NAC amide, 24 hours; glutamate alone = 100%
Description: LDH assay: For the lactate dehydrogenase (LDH) assay, cells were plated at a density of 2.5×10^5 cells/well in a 24 well collagen-coated culture plate and, after 24 h; the medium was replaced with fresh DMEM medium containing the desired concentration of glutamate and NAC amide. After the desired incubation period, the LDH activity released was determined using the kit as described below. For the MTS assay, cells were plated at a density of 10^5 cells/well in a 24 well collagen-coated plate. At the end of the experiments, cell viability was assayed using the kit as described. The LDH activity assay was performed with the CytoTox96® Non-Radioactive Cytotoxicity Assay kit (Promega, Madison, Wis., USA), which quantitatively measured the activity of LDH, a stable cytosolic enzyme that is released upon cell lysis [Technical Bulletin No. 163, Promega]. […] Absorbance data were collected using a BMG microplate reader (BMG Labtechnologies, Inc., Durham, N.C., USA) at 490 nm. LDH leakage was expressed as the percentage (%) of the maximum LDH release in the cells treated with glutamate alone (100%), according to the formula: […]
To quantify the protection provided by NAC amide, PC12 cells were exposed to 10 mM glutamate in the presence of NAC amide for 24 hours, and then the amount of LDH released was measured using the LDH assay.

PC12 cells [4] = assay: GSH measurement in cells (NPM/HPLC); format: cell-based
Description: Cells were seeded at a density of 80,000 cells/cm^2 on poly-D-lysine coated (0.05 mg/ml) 75 cm^2 flasks (5 ml/flask) for GSH measurement. […] After the incubation period, cells were removed from the cultures and homogenized in serine borate buffer (100 mM Tris-HCl, 10 mM boric acid, 5 mM L-serine, 1 mM DETAPAC, pH 7.4). Twenty (20) μl of the diluted cell homogenate were added to 230 μl of serine borate buffer and 750 μl of NPM (1 mM in acetonitrile). The resulting solutions were incubated at room temperature for 5 min. The reaction was stopped by the addition of 5 μl of 2N HCl. The samples were then filtered through a 0.2 μm Acrodisc filter and injected onto the HPLC system.
[…] Values represent means.+−.SD. Statistically different values of *P<0.05 were determined, compared to control. **P<0.001 compared to glutamate-treated group. ***P<0.05 compared to glutamate-treated group.

PC12 cells [5] = assay: MDA measurement in glutamate-exposed cells; format: cell-based; details: 24 h
Description: MDA measurement: To prepare the solution, 350 μl of straight cell homogenate, 100 μl of 500 ppm BHT (butylated hydroxytoluene), and 550 μl of 10% TCA (trichloroacetic acid) were combined and boiled for 30 min. The tubes were cooled on ice and centrifuged for 10 min at 2500 rpm. Five hundred (500) μl of the supernatant were removed and 500 μl of TBA (thiobarbituric acid) were added. The tubes were boiled again for 30 min, and then cooled on ice. From this solution, 500 μl were removed, added to 1.0 ml of n-butanol, vortexed, and centrifuged for 5 min at 60 g to facilitate a phase separation. The top layer was then filtered through 0.45 μm filters and injected onto a 5 μm C18 column (250×4.6 mm) on a reverse phase HPLC system. The mobile phase consisted of 69.4% 5 mM sodium phosphate buffer (pH=7.0), 30% acetonitrile, and 0.6% THF (tetrahydrofuran). The excitation wavelength was 515 nm; the emission wavelength was 550 nm (Draper H. H. et al., Free Radic Biol Med., 15(4):353-63, 1993).
Cells were plated and grown for 24 hours, and then they were exposed to glutamate (10 mM) in the presence or absence of NAC amide (750 μM). Twenty-four hours later, the cells were harvested and malondialdehyde levels were measured. Values represent means.+−.SD. Statistically different values of *P<0.002 and **P<0.05 were determined, compared to control. ***P<0.05 compared to glutamate-treated group.

mice = assay: GSH and cysteine levels after administration to mice; format: in vivo; details: 30 minutes after administration
red blood cells (RBCs) = details: Grinberg et al. 2005; cited from earlier work
[6] = GLU (10 mM) + NAC amide (750 μM)

Compound | time increased hepatic GSH levels are maintained [1] | protection from glutamate toxicity (neurite morphology, light microscopy) (PC12 cells [2]) | % LDH released (PC12 cells [3]) [%] | increase of PC12 cell GSH level compared to the control group (PC12 cells [4]; 750 μM, 24 hour treatment) | GSH Levels (PC12 cells [4]; GLU (10 mM) + BSO (0.2 mM) + NAC amide (750 μM)) [nM/mg protein] | GSH Levels (PC12 cells [4]; [6]) [nM/mg protein] | GSH Levels (PC12 cells [4]; NAC amide (750 μM) alone) [nM/mg protein] | cells' GSH levels maintained in GSH synthesis-arrested cells (PC12 cells [4]; glutamate + BSO (0.2 mM)) [%] | MDA Levels (PC12 cells [5]; [6]) [nM/100 mg protein] | MDA Levels (PC12 cells [5]; NAC amide (750 μM) alone) [nM/100 mg protein] | GSH and cysteine levels (mice) | BuOOH-induced intracellular oxidation in red blood cells (red blood cells (RBCs))
CC(=O)N[C@@H](CS)C(=O)O [NAC, N-acetylcysteine] | at least 6 hours | – | – | – | – | – | – | – | – | – | – | –
N-acetylcysteine amide [NAC amide] | – | slightly decreasing the bleb formation on neurites | 28.9 | two fold | 30 ± 4.3 | 88 ± 11.0 | 112 ± 17.8 | 56 | 88 ± 11 | 81 ± 22 | Increases | inhibit
